Laboratory results reported in ChEMBL document CHEMBL1201861, “Genomics of Drug Sensitity in Cancer screening data, Wellcome Trust Sanger Institute”.

Experiments:
Assay in all cases: cells
J82 = format: functional, cell-based, Homo sapiens; details: Homo sapiens, J82;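 note: growth inhibition of J82 cells, read out with a cell viability assay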
Description: SANGER: Inhibition of human J82 cell growth in a cell viability assay.

HSC-2 = format: functional, cell-based, Homo sapiens; details: Homo sapiens, HSC-2;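 note: growth inhibition of human HSC-2 cells, read out by a cell viability assay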
Description: SANGER: Inhibition of human HSC-2 cell growth in a cell viability assay.

MDA-MB-361 = format: functional, cell-based, Homo sapiens; details: Homo sapiens, MDA-MB-361
MKN-45 = format: functional, cell-based, Homo sapiens; details: Homo sapiens, MKN-45;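 note: growth inhibition of human MKN-45 cells, measured with a cell viability assay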
Description: SANGER: Inhibition of human MKN45 cell growth in a cell viability assay.

TALL-1 = format: functional, cell-based, Homo sapiens; details: Homo sapiens, TALL-1;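 note: growth inhibition of cultured human TALL-1 cells, read out by a cell viability assay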
Description: SANGER: Inhibition of human TALL-1 cell growth in a cell viability assay.

SW1417 = format: functional, cell-based, Homo sapiens; details: Homo sapiens, SW1417;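 note: growth inhibition of human SW1417 cells, read out with a cell viability assay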
Description: SANGER: Inhibition of human SW1417 cell growth in a cell viability assay.

NCI-H2228 = format: functional, cell-based, Homo sapiens; details: Homo sapiens, NCI-H2228;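 note: growth inhibition of human NCI-H2228 cells, read out by a cell viability assay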
Description: SANGER: Inhibition of human NCI-H2228 cell growth in a cell viability assay.

NCI-H1563 = format: functional, cell-based, Homo sapiens; details: Homo sapiens, NCI-H1563;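 note: growth inhibition of human NCI-H1563 cells, read out with a cell viability assay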
Description: SANGER: Inhibition of human NCI-H1563 cell growth in a cell viability assay.

KYSE-180 = format: functional, cell-based, Homo sapiens; details: Homo sapiens, KYSE-180;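 note: growth inhibition of KYSE-180 cells, read out with a cell viability assay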
Description: SANGER: Inhibition of human KYSE-180 cell growth in a cell viability assay.

H4 = format: functional, cell-based, Homo sapiens; details: Homo sapiens, H4
Description: SANGER: Inhibition of human H4 cell growth in a cell viability assay.

MONO-MAC-6 = format: functional, cell-based, Homo sapiens; details: Homo sapiens, MONO-MAC-6;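 note: cell viability assay measuring growth inhibition of human MONO-MAC-6 cells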
Description: SANGER: Inhibition of human MONO-MAC-6 cell growth in a cell viability assay.

SK-HEP1 = format: functional, cell-based, Homo sapiens, SK-HEP-1; details: Homo sapiens, SK-HEP1;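 note: cell viability readout used to quantify reduction in proliferation of human SK-HEP-1 cells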
Description: SANGER: Inhibition of human SK-HEP-1 cell growth in a cell viability assay.

VMRC-RCZ = format: functional, cell-based, Homo sapiens; details: Homo sapiens, VMRC-RCZ;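 note: growth inhibition measured with a cell viability assay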
Description: SANGER: Inhibition of human VMRC-RCZ cell growth in a cell viability assay.

HuP-T4 = format: functional, cell-based, Homo sapiens; details: Homo sapiens, HuP-T4;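 note: cell viability assay measuring how much HuP-T4 cell growth is inhibited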
Description: SANGER: Inhibition of human HuP-T4 cell growth in a cell viability assay.

SNU-387 = format: functional, cell-based, Homo sapiens; details: Homo sapiens, SNU-387
Description: SANGER: Inhibition of human SNU-387 cell growth in a cell viability assay.

DOK = format: functional, cell-based, Homo sapiens; details: Homo sapiens, DOK;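 note: cell viability assay read-out, values reflect inhibition of cell growth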
Description: SANGER: Inhibition of human DOK cell growth in a cell viability assay.

HCC1569 = format: functional, cell-based, Homo sapiens; details: Homo sapiens, HCC1569;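 note: growth inhibition of human HCC1569 cells, read out with a cell viability assay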
Description: SANGER: Inhibition of human HCC1569 cell growth in a cell viability assay.

8505C = format: functional, cell-based, Homo sapiens; details: Homo sapiens, 8505C
Description: SANGER: Inhibition of human 8505C cell growth in a cell viability assay.

CAL-62 = format: functional, cell-based, Homo sapiens; details: Homo sapiens, CAL-62;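 note: growth inhibition of CAL-62 cells, read out with a cell viability assay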
Description: SANGER: Inhibition of human CAL-62 cell growth in a cell viability assay.

MCF7 = format: functional, cell-based, Homo sapiens; details: Homo sapiens, MCF7;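 note: growth inhibition of human MCF7 cells, read out with a cell viability assay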
Description: SANGER: Inhibition of human MCF7 cell growth in a cell viability assay.

A2058 = format: functional, cell-based, Homo sapiens; details: Homo sapiens, A2058;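 note: reduction of A2058 cell growth, read out with a viability assay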
Description: SANGER: Inhibition of human A2058 cell growth in a cell viability assay.

NCI-H1703 = format: functional, cell-based, Homo sapiens; details: Homo sapiens, NCI-H1703;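 note: growth inhibition of NCI-H1703 cells, read out via a cell viability assay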
Description: SANGER: Inhibition of human NCI-H1703 cell growth in a cell viability assay.

SK-OV-3 = format: functional, cell-based, Homo sapiens; details: Homo sapiens, SK-OV-3;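 note: growth inhibition of SK-OV-3 human cells, read out with a cell viability assay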
Description: SANGER: Inhibition of human SK-OV-3 cell growth in a cell viability assay.

BCPAP = format: functional, cell-based, Homo sapiens; details: Homo sapiens, BCPAP;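 note: growth inhibition of BCPAP cells, read out in a cell viability assay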
Description: SANGER: Inhibition of human BCPAP cell growth in a cell viability assay.

RERF-LC-MS = format: functional, cell-based, Homo sapiens; details: Homo sapiens, RERF-LC-MS;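 note: growth inhibition of human RERF-LC-MS cells, read out by a cell viability assay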
Description: SANGER: Inhibition of human RERF-LC-MS cell growth in a cell viability assay.

C32 = format: functional, cell-based, Homo sapiens; details: Homo sapiens, C32;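 note: cell viability assay, with IC50 reflecting inhibition of C32 cell growth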
Description: SANGER: Inhibition of human C32 cell growth in a cell viability assay.

LOUCY = format: functional, cell-based, Homo sapiens; details: Homo sapiens, LOUCY;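 note: growth inhibition of human LOUCY cells, read out with a cell viability assay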
Description: SANGER: Inhibition of human LOUCY cell growth in a cell viability assay.

SK-MEL-24 = format: functional, cell-based, Homo sapiens; details: Homo sapiens, SK-MEL-24;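 note: growth inhibition read out by a cell viability assay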
Description: SANGER: Inhibition of human SK-MEL-24 cell growth in a cell viability assay.

SK-MEL3 = format: functional, cell-based, Homo sapiens, SK-MEL-3; details: Homo sapiens, SK-MEL3;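 note: growth inhibition of human SK-MEL-3 cells, read out with a cell viability assay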
Description: SANGER: Inhibition of human SK-MEL-3 cell growth in a cell viability assay.

Capan-2 = format: functional, cell-based, Homo sapiens; details: Homo sapiens, Capan-2;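 note: Capan-2 cell growth inhibition, read out with a viability assay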
Description: SANGER: Inhibition of human Capan-2 cell growth in a cell viability assay.

NALM-6 = format: functional, cell-based, Homo sapiens; details: Homo sapiens, NALM-6;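 note: growth inhibition of NALM-6 cells, read out with a cell viability assay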
Description: SANGER: Inhibition of human NALM-6 cell growth in a cell viability assay.

TCC-SUP = format: functional, cell-based, Homo sapiens; details: Homo sapiens, TCC-SUP;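 note: growth inhibition of TCC-SUP cells, read out with a cell viability assay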
Description: SANGER: Inhibition of human TCCSUP cell growth in a cell viability assay.

HuO-3N1 = format: functional, cell-based, Homo sapiens; details: Homo sapiens, HuO-3N1;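 note: cell viability readout used to measure how strongly compounds suppress proliferation of human HuO-3N1 cells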
Description: SANGER: Inhibition of human HuO-3N1 cell growth in a cell viability assay.

LC4-1 = format: functional, cell-based, Homo sapiens; details: Homo sapiens, LC4-1;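 note: growth inhibition of LC4-1 cells, read out with a cell viability assay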
Description: SANGER: Inhibition of human LC4-1 cell growth in a cell viability assay.

COR-L23 = format: functional, cell-based, Homo sapiens; details: Homo sapiens, COR-L23;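 note: cell viability assay measuring how strongly compounds suppress growth of COR-L23 cells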
Description: SANGER: Inhibition of human COR-L23 cell growth in a cell viability assay.

UACC-893 = format: functional, cell-based, Homo sapiens; details: Homo sapiens, UACC-893
Description: SANGER: Inhibition of human UACC-893 cell growth in a cell viability assay.

NUGC-3 = format: functional, cell-based, Homo sapiens; details: Homo sapiens, NUGC-3;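 note: growth inhibition of human NUGC-3 cells, read out with a cell viability assay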
Description: SANGER: Inhibition of human NUGC-3 cell growth in a cell viability assay.

SIMA = format: functional, cell-based, Homo sapiens; details: Homo sapiens, SIMA;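 note: growth inhibition of SIMA cells, measured with a cell viability readout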
Description: SANGER: Inhibition of human SIMA cell growth in a cell viability assay.

HMV-2 cell line = format: functional, cell-based, Homo sapiens; details: Homo sapiens, HMV-2;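 note: growth inhibition of HMV-II cells, read out with a cell viability assay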
Description: SANGER: Inhibition of human HMV-II cell growth in a cell viability assay.

CAL-148 = format: functional, cell-based, Homo sapiens; details: Homo sapiens, CAL-148
Description: SANGER: Inhibition of human CAL-148 cell growth in a cell viability assay.

ACHN = format: functional, cell-based, Homo sapiens; details: Homo sapiens, ACHN;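 note: cell viability read-out used to gauge how strongly growth of human ACHN cells is suppressed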
Description: SANGER: Inhibition of human ACHN cell growth in a cell viability assay.

RT-112 = format: functional, cell-based, Homo sapiens; details: Homo sapiens, RT-112
Description: SANGER: Inhibition of human RT-112 cell growth in a cell viability assay.

Ca-Ski = format: functional, cell-based, Homo sapiens; details: Homo sapiens, Ca-Ski;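 note: cell viability assay measuring inhibition of Ca-Ski cell growth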
Description: SANGER: Inhibition of human Ca-Ski cell growth in a cell viability assay.

HT-1080 = format: functional, cell-based, Homo sapiens; details: Homo sapiens, HT-1080
Description: SANGER: Inhibition of human HT-1080 cell growth in a cell viability assay.

SK-MM-2 = format: functional, cell-based, Homo sapiens; details: Homo sapiens, SK-MM-2;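 note: growth inhibition of human SK-MM-2 cells, read out with a cell viability assay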
Description: SANGER: Inhibition of human SK-MM-2 cell growth in a cell viability assay.

MEL-HO = format: functional, cell-based, Homo sapiens; details: Homo sapiens, MEL-HO
Description: SANGER: Inhibition of human MEL-HO cell growth in a cell viability assay.

Structure (SMILES): Nc1ccn([C@@H]2O[C@H](CO)[C@@H](O)C2(F)F)c(=O)n1 [GEMCITABINE]
- IC50 (J82): 7.41 nM
- IC50 (HSC-2): 3.03 nM
- IC50 (MDA-MB-361): 461 nM
- IC50 (MKN-45): 17.7 nM
- IC50 (TALL-1): > 1020 nM
- IC50 (SW1417): > 1020 nM
- IC50 (NCI-H2228): < 4 nM
- IC50 (NCI-H1563): > 1020 nM
- IC50 (KYSE-180): 12.8 nM
- IC50 (H4): 2.18 nM
- IC50 (MONO-MAC-6): 24.8 nM
- IC50 (SK-HEP1): 6.14 nM
- IC50 (VMRC-RCZ): 1.54 nM
- IC50 (HuP-T4): 27.3 nM
- IC50 (SNU-387): 827 nM
- IC50 (DOK): > 1020 nM
- IC50 (HCC1569): 109 nM
- IC50 (8505C): 1.06 nM
- IC50 (CAL-62): 1.22 nM
- IC50 (MCF7): < 4 nM
- IC50 (A2058): 32.8 nM
- IC50 (NCI-H1703): 31.8 nM
- IC50 (SK-OV-3): 38.7 nM
- IC50 (BCPAP): 1.45 nM
- IC50 (RERF-LC-MS): 177 nM
- IC50 (C32): > 1020 nM
- IC50 (LOUCY): 20.7 nM
- IC50 (SK-MEL-24): > 1020 nM
- IC50 (SK-MEL3): 105 nM
- IC50 (Capan-2): > 1020 nM
- IC50 (NALM-6): < 4 nM
- IC50 (TCC-SUP): > 1020 nM
- IC50 (HuO-3N1): > 1020 nM
- IC50 (LC4-1): 74.7 nM
- IC50 (COR-L23): 14.1 nM
- IC50 (UACC-893): > 1020 nM
- IC50 (NUGC-3): 18.3 nM
- IC50 (SIMA): 161 nM
- IC50 (HMV-2 cell line): 24.3 nM
- IC50 (CAL-148): 17.2 nM
- IC50 (ACHN): < 4 nM
- IC50 (RT-112): < 4 nM
- IC50 (Ca-Ski): 7.09 nM
- IC50 (HT-1080): 5.83 nM
- IC50 (SK-MM-2): 479 nM
- IC50 (MEL-HO): 5.16 nM

Structure (SMILES): Oc1ccc2ccccc2c1SSc1c(O)ccc2ccccc12
- IC50 (J82): 7050 nM
- IC50 (HSC-2): > 32000 nM
- IC50 (MDA-MB-361): > 32000 nM
- IC50 (MKN-45): > 32000 nM
- IC50 (TALL-1): > 32000 nM
- IC50 (SW1417): > 32000 nM
- IC50 (NCI-H2228): > 32000 nM
- IC50 (NCI-H1563): > 32000 nM
- IC50 (KYSE-180): > 32000 nM
- IC50 (H4): > 32000 nM
- IC50 (MONO-MAC-6): > 32000 nM
- IC50 (SK-HEP1): > 32000 nM
- IC50 (VMRC-RCZ): 14100 nM
- IC50 (HuP-T4): > 32000 nM
- IC50 (SNU-387): > 32000 nM
- IC50 (DOK): > 32000 nM
- IC50 (HCC1569): > 32000 nM
- IC50 (8505C): 11200 nM
- IC50 (CAL-62): > 32000 nM
- IC50 (MCF7): 2180 nM
- IC50 (A2058): > 32000 nM
- IC50 (NCI-H1703): > 32000 nM
- IC50 (SK-OV-3): > 32000 nM
- IC50 (BCPAP): > 32000 nM
- IC50 (RERF-LC-MS): > 32000 nM
- IC50 (C32): > 32000 nM
- IC50 (LOUCY): > 32000 nM
- IC50 (SK-MEL-24): > 32000 nM
- IC50 (SK-MEL3): > 32000 nM
- IC50 (Capan-2): > 32000 nM
- IC50 (NALM-6): 977 nM
- IC50 (TCC-SUP): > 32000 nM
- IC50 (HuO-3N1): > 32000 nM
- IC50 (LC4-1): > 32000 nM
- IC50 (COR-L23): 11800 nM
- IC50 (UACC-893): > 32000 nM
- IC50 (NUGC-3): > 32000 nM
- IC50 (SIMA): > 32000 nM
- IC50 (HMV-2 cell line): > 32000 nM
- IC50 (CAL-148): > 32000 nM
- IC50 (ACHN): > 32000 nM
- IC50 (RT-112): 27300 nM
- IC50 (Ca-Ski): > 32000 nM
- IC50 (HT-1080): 18600 nM
- IC50 (SK-MM-2): > 32000 nM
- IC50 (MEL-HO): > 32000 nM
